Laboratory results: patent publication US11566030B2, “Substituted 2,6-dihydropyrrolo[3,4-c]pyrazoles as pyruvate kinase activators” (priority 2021, dated 2023)
Where two headings read alike, the source gives them in different places.

Legend:
[1] = test system: mouse model of beta-thalassemia; settings: cited from earlier work
[2] = target: T1, Human pyruvate kinase R (PKR) (Homo sapiens, UniProt P30613); assay: Biochemical assay for activation of pyruvate kinase R (Kinase-Glo luminescence, ATP generation); settings: for Emax: read-out: PKR % activation, maximal activation level achieved with each compound relative to the activation level achieved by AG-348 @ 10 μM
T1 construct: Human pyruvate kinase R (PKR), residues 14-574; 6xHis-8xArg-SUMO (N, cleaved yes); host or cells: E. coli
How it was run: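 Recombinant human PKR (residues 14-574) expressed in E. coli with His-Arg-SUMO tag, tag cleaved, purified by Ni-NTA, anion exchange and size exclusion. Activation read as ATP generation by Kinase-Glo luminescence.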

[3] = PKR AC50 (nM), 0.1 nM PKR, 0.3 mM ADP, 0.1 mM PEP, 1% DMSO

T1 sequence (P30613 14-574): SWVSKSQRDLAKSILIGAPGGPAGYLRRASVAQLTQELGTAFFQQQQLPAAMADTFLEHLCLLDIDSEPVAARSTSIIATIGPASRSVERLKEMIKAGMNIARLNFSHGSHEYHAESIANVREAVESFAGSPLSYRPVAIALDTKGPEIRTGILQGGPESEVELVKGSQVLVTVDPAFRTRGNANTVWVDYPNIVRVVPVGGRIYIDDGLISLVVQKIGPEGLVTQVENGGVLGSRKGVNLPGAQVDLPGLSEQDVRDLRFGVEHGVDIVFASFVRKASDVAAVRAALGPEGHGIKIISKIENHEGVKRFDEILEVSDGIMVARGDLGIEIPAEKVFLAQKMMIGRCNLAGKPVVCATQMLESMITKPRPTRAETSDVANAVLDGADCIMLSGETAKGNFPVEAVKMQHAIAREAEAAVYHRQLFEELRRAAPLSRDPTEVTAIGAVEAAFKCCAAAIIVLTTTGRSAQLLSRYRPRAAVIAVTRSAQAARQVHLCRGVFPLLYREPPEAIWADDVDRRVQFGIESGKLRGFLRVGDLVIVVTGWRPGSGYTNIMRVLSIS

Row | SMILES | AC50 [2, 3] | Emax [2] | AC50 [2] | ATP levels [1] | PK activity [1] | RBC parameters [1]
1 | O=C(c1ccc(NS(=O)(=O)c2cccc3cccnc23)cc1)N1CCN(CC2CC2)CC1 [AG-348, Mitapivat] | – | – | – | increased | increased | improved
2 | O=C([C@H](O)c1ncccc1F)N1Cc2cn(S(=O)(=O)c3cnn(CC(F)F)c3)nc2C1 (single isomer, unassigned) [Compound 38] | – | 121% | 1800 nM | – | – | –
3 | CCc1ccc(S(=O)(=O)n2cc3c(n2)CN(C(=O)[C@H](CO)c2ccccc2)C3)s1 [Compound 21, (2S)-1-{2-[(5-ethylthiophen-2-yl)sulfonyl]-2H,4H,5H,6H-pyrrolo[3,4-c]pyrazol-5-yl}-3-hydroxy-2-phenylpropan-1-one] | – | 65% | 16 nM | – | – | –
4 | O=C([C@@H](O)c1ccccc1)N1Cc2cn(S(=O)(=O)c3cnn(CC(F)F)c3)nc2C1 [Compound 34, (2S)-1-[2-[1-(2,2-difluoroethyl)pyrazol-4-ylsulfonyl]-4H,6H-pyrrolo[3,4-c]pyrazol-5-yl]-2-hydroxy-2-phenylethanone] | – | 102% | 930 nM | – | – | –

Now from value to compound, other results behind:

Row | AC50 [2, 3] | Emax [2] | AC50 [2] | SMILES | ATP levels [1] | PK activity [1] | RBC parameters [1]
5 | 6.7 nM | 50% | – | CC(C)n1cc(S(=O)(=O)n2cc3c(n2)CN(C(=O)[C@H](CO)c2ccccc2F)C3)cn1 [Compound 57, (2S)-2-(2-fluorophenyl)-3-hydroxy-1-[2-(1-isopropylpyrazol-4-ylsulfonyl)-4H,6H-pyrrolo[3,4-c]pyrazol-5-yl]propan-1-one] | – | – | –
6 | 0.51 nM | 3% | – | Cc1cn(CC(F)(F)F)nc1S(=O)(=O)n1cc2c(n1)CN(C(=O)C1(c3ncccc3Cl)COC1)C2 [Compound 75, (3-(3-chloropyridin-2-yl)oxetan-3-yl)(2-((4-methyl-1-(2,2,2-trifluoroethyl)-1H-pyrazol-3-yl)sulfonyl)-2,6-dihydropyrrolo[3,4-c]pyrazol-5(4H)-yl)methanone] | – | – | –
7 | 5.7 nM | 131% | – | O=C([C@H](CO)c1ccccc1Cl)N1Cc2cn(S(=O)(=O)c3cnn(CCF)c3)nc2C1 [Compound 90, (2S)-2-(2-chlorophenyl)-1-{2-[1-(2-fluoroethyl)pyrazol-4-ylsulfonyl]-4H,6H-pyrrolo[3,4-c]pyrazol-5-yl}-3-hydroxypropan-1-one] | – | – | –
8 | 8.5 nM | 123% | – | Cc1c(S(=O)(=O)n2cc3c(n2)CN(C(=O)[C@H](CO)c2ccccc2Cl)C3)cnn1CC(F)F [Compound 101, (2S)-2-(2-chlorophenyl)-1-{2-[1-(2,2-difluoroethyl)-5-methylpyrazol-4-ylsulfonyl]-4H,6H-pyrrolo[3,4-c]pyrazol-5-yl}-3-hydroxypropan-1-one] | – | – | –
